Measured values as given in patent US20260048060A1, “POLYCYCLIC THYROID HORMONE b RECEPTOR AGONIST AND USE THEREOF” (CASCADE PHARMACEUTICALS, INC., priority 2022, published 2026).

Assays:
THRβ [1] = target: T1, THRβ (Homo sapiens, UniProt P10828); test: Time-resolved FRET (THR-FRET) agonist activity assay, GST-tagged THRβ LBD with SRC2 polypeptide; format: biochemical; conditions: ratio of THR-FRET EC50 values THRα/THRβ
T1 construct: made in house; host or cells: E. coli BL21 (DE3)
T1 sequence (P10828 217-461 limits assumed): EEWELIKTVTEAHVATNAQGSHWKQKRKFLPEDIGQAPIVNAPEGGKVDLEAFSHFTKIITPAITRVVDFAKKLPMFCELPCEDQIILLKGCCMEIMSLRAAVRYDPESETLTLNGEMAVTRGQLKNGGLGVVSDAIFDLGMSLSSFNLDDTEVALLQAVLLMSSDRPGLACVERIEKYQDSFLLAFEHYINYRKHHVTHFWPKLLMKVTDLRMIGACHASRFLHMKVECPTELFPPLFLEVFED
From the text: Experimental Example 2: Detection of Agonist Activities of Compounds Against THRα/β Based on Time-Resolved Fluorescence Resonance Energy Transfer (THR-FRET)
By visiting NCBI, the THRα/β LBD domain sequences were found. The pET21-His-GST-dLBT-THRα LBD and pET21-His-GST-dLBT-THRβ LBD overexpression vectors were constructed by the fusion method, and sequenced to confirm the accuracy of the sequences.
The correctly sequenced THRα LBD and THRβ LBD overexpression vectors were transfected into E. coli cells BL21 (DE3), and spread on an agar plate with ampicillin. Monoclones were picked out and amplified in an LB medium, and transferred into 1 L LB at a ratio of 1:100 for large-scale culture. When the OD value was at 0.8 to 1.2, 0.5 mM isopropyl-beta-D-thiogalactopyranoside (IPTG) was added, and induced overnight at 18° C. The bacteria were harvested, disrupted, and purified via the GST column and the molecular sieve to obtain two proteins His-GST-dLBT-THRα LBD and His-GST-dLBT-THRβ LBD.
The proteins were taken out from a refrigerator at −80° C. The proteins with the GST-tagged THRα/β LBD domain and the Eu-labelled GST antibodies were thawed slowly on ice, and an assay buffer containing a final concentration of 5 mM dithiothreitol (DTT) was formulated.
The starting concentration of the compound was 100 μM (in DMSO). The compound (100 μM in DMSO) was subjected to 3-fold isogradient dilution with DMSO to obtain a total of 11 isogradient concentrations. Subsequently, the above compounds at the isogradient concentration were further subjected to 50-fold dilution with an assay buffer containing 5 mM DTT.
The final concentrations of all components were calculated based on a system with a final volume of 20 μL per well. To 18 μL of assay buffer containing 5 mM DTT, the GST-tagged THRα/β proteins, the SRC2 ([…]) polypeptide, XL665 (Cisobio, #610SAXLB), and the Eu-labeled GST antibody were added, and the final concentrations were 2 nM, 200 nM, 0.05 nM, and 7.6 nM respectively to formulate 18 μL of reaction mixture of the proteins, polypeptide, and antibody per well.
18 μL of reaction mixture and 2 μL of diluted compound were added into an optiplate-384-well plate, and reacted at room temperature for 24 h.
The plate was read using an MD i3X multi-mode microplate reader with the excitation and emission wavelengths of 340 nm and 665 nm, respectively. The intensity of light at a wavelength of 616 nm generated by europium excited by 340 nm wavelength light from the MD i3X multi-mode microplate reader was used as the background. According to the different activation degrees of different compounds against THRα and THRβ, the intensity of the emission light at a wavelength of 665 nm generated by exciting XL665 with the exciting light at a wavelength of 616 nm was varied. The intensity ratio between these two light wavelengths (665 nm, 616 nm) was used as the activation activity of the compound against THRα or THRβ, and the ratio in the solvent DMSO group was used for normalization. The dose-response curve was fitted with four parameters using the GraphPad Prism 6.0 software, and the EC50 value was calculated.

THRβ [2] = target: T2, THRβ (Homo sapiens, UniProt P10828); test: Reporter gene (GAL4-THRβ-LBD / Dual-Glo luciferase) agonist activity assay in HEK293T cells; format: cell-based; conditions: ratio of reporter gene EC50 values THRα/THRβ
T2 construct: expressed in transfected cells; host or cells: HEK293T
T2 sequence (P10828 217-461): T1 sequence (P10828 217-461 limits assumed)
From the text: Experimental Example 1: Detection of THRα and THRβ Agonist Activities of Compounds Based on Reporter Gene Activity Assay Method
1.1 Construction and Preparation of Plasmids pGAL4-THR-LBD and pG5-Luc
The pGAL4-THRα-LBD and pGAL4-THRβ-LBD plasmids used in the reporter gene assay system were constructed by a conventional molecular cloning method comprising the following main steps: the cDNA sequences of THRα (NM_003250) and THRβ (NM_000461) corresponding to the amino acid sequences of THRα (163-407AA) and THRβ (217-461AA) were inserted into the BamHI and NotI enzyme digestion sites of the pGAL4 vector by the PCR technique respectively to obtain the pGAL4-THRα-LBD and pGAL4-THRβ-LBD plasmids; the pG5-Luc (#E249A) and pRL-TK (#E2241) plasmids were purchased from Promega; the plasmids were transfected into the E. coli DH5α by the CaCl2 method, and after further culture and amplification, the plasmids were purified by Plasmid Extraction Kits (TIANGEN, #D107) to obtain the corresponding plasmid DNAs.
1.2 Co-Transfection of Plasmids into HEK293T Cells and Treatment with Compounds
The HEK293T cells were inoculated into a 96-well plate at a density of 1×10^4/well the day before plasmid transfection. Cell transfection was conducted according to the instructions of the transfection reagent FuGENE® HD (Promega, #E2311). The main steps were as follows: taking one well as an example here, the plasmids pGAL4-THRα-LBD or pGAL4-THRβ-LBD, pG5-Luc, and pRL-TK were added in the proportions of 20 ng, 50 ng, and 5 ng to 10 μL of Opti-MEM™ I medium (Gibco, #11058021) and mixed well; subsequently, 0.25 uL of FuGENE® HD was added, mixed well, and then left at room temperature for 5 min; afterwards, 10 μL of the mixture was added to the cell wells containing 100 μL of culture medium. After cell co-transfection for 6 h, the compound was diluted in a 3-fold gradient with dimethyl sulfoxide at the highest concentration of 1 uM. The compound was added to the cell culture medium at a total of 10 concentrations for treatment for 24 h. There were a total of two duplicate wells for each concentration. Triiodothyronine (T3) was used as the positive control.
1.3 Dual-Glo Luciferase Assay
After the cells were treated with the compound for 24 h, the cells were assayed according to the instructions of Dual-Glo® Luciferase Assay System (Promega, #E2940). The main steps were as follows: 50 μL of culture medium was aspirated from each well and discarded, and then 50 μL of Dual-Glo® Luciferase reagent was added and oscillated at room temperature for 10 min; 80 μL of lysis reaction solution was measured into a white opaque optiPlate-96-well plate, and the luminescence signal value (Firefly-Luc) of the Firefly luciferase was detected using an MD i3x multi-mode microplate reader; 40 μL of Dual-Glo® Stop & Glo® reagent was then added, and oscillated at room temperature for 10 min; the luminescence signal value (Renilla-Luc) of the Renilla luciferase was then detected using an MD i3x multi-mode microplate reader. The Firefly-Luc/Renilla-Luc ratio was used as the activation activity of the compound against THR, and the ratio in the solvent DMSO group was used for normalization; the dose-response curve was fitted with four parameters using the GraphPad Prism6.0 software, and the EC50 value was calculated.

Row | Selectivity (THRα/THRβ) (THRβ [1]) | Selectivity (THRα/THRβ) (THRβ [2]) | SMILES
1 | †† (††: 10 ≥ THRα/β;) | – | N#Cc1nn(-c2cc(Cl)c(COc3ccccc3C(N)=O)c(Cl)c2)c(=O)[nH]c1=O [Compound 1]
2 | †† (††: 10 ≥ THRα/β;) | – | N#Cc1nn(-c2cc(Br)c(COc3ccccc3C(N)=O)c(Br)c2)c(=O)[nH]c1=O [Compound 11]
3 | †† (††: 10 ≥ THRα/β;) | – | CNC(=O)c1ccccc1OCc1c(Br)cc(-n2nc(C#N)c(=O)[nH]c2=O)cc1Br [Compound 12]
4 | †† (††: 10 ≥ THRα/β;) | † (†: 5 ≥ THRα/β;) | NC(=O)c1ccccc1OCc1c(Cl)cc(-n2ncc(=O)[nH]c2=O)cc1Cl [Compound 14]
5 | †† (††: 10 ≥ THRα/β;) | † (†: 5 ≥ THRα/β;) | CNC(=O)c1ccccc1OCc1c(Cl)cc(-n2ncc(=O)[nH]c2=O)cc1Cl [Compound 17]
6 | ††† (†††: 20 ≥ THRα/β > 10;) | – | NC(=O)c1ccccc1SCc1c(Cl)cc(-n2ncc(=O)[nH]c2=O)cc1Cl [Compound 19]
7 | ††† (†††: 20 ≥ THRα/β > 10;) | † (†: 5 ≥ THRα/β;) | CNC(=O)c1ccccc1SCc1c(Br)cc(-n2ncc(=O)[nH]c2=O)cc1Br [Compound 25]
8 | ††† (†††: 20 ≥ THRα/β > 10;) | – | O=C(O)c1ccccc1NCc1c(Cl)cc(-n2ncc(=O)[nH]c2=O)cc1Cl [Compound 26]
9 | ††† (†††: 20 ≥ THRα/β > 10;) | – | Cc1ccc(C(N)=O)c(OCc2c(Cl)cc(-n3ncc(=O)[nH]c3=O)cc2Cl)c1 [Compound 33]
10 | †† (††: 10 ≥ THRα/β;) | †† (††: 10 ≥ THRα/β > 5;) | NC(=O)c1ccccc1OCc1c(Br)cc(-n2ncc(=O)[nH]c2=O)cc1Br [Compound 38]
11 | †† (††: 10 ≥ THRα/β;) | – | O=C(NO)c1ccccc1OCc1c(Cl)cc(-n2ncc(=O)[nH]c2=O)cc1Cl [Compound 42]
12 | †† (††: 10 ≥ THRα/β;) | † (†: 5 ≥ THRα/β;) | NC(=O)c1sccc1OCc1c(Cl)cc(-n2ncc(=O)[nH]c2=O)cc1Cl [Compound 45]
13 | †† (††: 10 ≥ THRα/β;) | † (†: 5 ≥ THRα/β;) | NC(=O)c1ccccc1OCc1c(Cl)cc(-n2nc(C(F)F)c(=O)[nH]c2=O)cc1Cl [Compound 54]
14 | ††† (†††: 20 ≥ THRα/β > 10;) | † (†: 5 ≥ THRα/β;) | COc1ccc(OCc2c(Cl)cc(-n3ncc(=O)[nH]c3=O)cc2Cl)c(C(N)=O)c1 [Compound 69]
15 | †† (††: 10 ≥ THRα/β;) | † (†: 5 ≥ THRα/β;) | [2H]C(Oc1ccccc1C(=O)NC)c1c(Br)cc(-n2nc(C(F)F)c(=O)[nH]c2=O)cc1Br (centres unmarked) [Compound 106]
16 | †† (††: 10 ≥ THRα/β;) | † (†: 5 ≥ THRα/β;) | [2H]C(F)(F)c1nn(-c2cc(Br)c(COc3ccccc3C(=O)NC)c(Br)c2)c(=O)[nH]c1=O [Compound 107]
17 | †† (††: 10 ≥ THRα/β;) | – | CNC(=O)c1ccccc1Oc1c(Cl)cc(-n2ncc(=O)[nH]c2=O)cc1Cl [Compound 114, reference compound]

The next lines start with the compound.

Row | SMILES | Selectivity (THRα/THRβ) (THRβ [1]) | Selectivity (THRα/THRβ) (THRβ [2])
18 | CNC(=O)c1ccccc1OCc1c(Cl)cc(-n2nc(C#N)c(=O)[nH]c2=O)cc1Cl [Compound 2] | †† (††: 10 ≥ THRα/β;) | –
19 | N#Cc1nn(-c2cc(Cl)c(CSc3ccccc3C(=O)O)c(Cl)c2)c(=O)[nH]c1=O [Compound 6] | ††† (†††: 20 ≥ THRα/β > 10;) | –
20 | CNC(=O)c1ccccc1SCc1c(Cl)cc(-n2nc(C#N)c(=O)[nH]c2=O)cc1Cl [Compound 7] | ††† (†††: 20 ≥ THRα/β > 10;) | –
21 | CNC(=O)c1ccccc1NCc1c(Cl)cc(-n2nc(C#N)c(=O)[nH]c2=O)cc1Cl [Compound 9] | †† (††: 10 ≥ THRα/β;) | –
22 | N#Cc1nn(-c2cc(Cl)c(CNc3ccccc3C(=O)O)c(Cl)c2)c(=O)[nH]c1=O [Compound 10] | ††† (†††: 20 ≥ THRα/β > 10;) | –
23 | CNC(=O)c1ccccc1SCc1c(Br)cc(-n2nc(C#N)c(=O)[nH]c2=O)cc1Br [Compound 13] | †† (††: 10 ≥ THRα/β;) | –
24 | O=C(O)c1ccccc1SCc1c(Cl)cc(-n2ncc(=O)[nH]c2=O)cc1Cl [Compound 18] | ††† (†††: 20 ≥ THRα/β > 10;) | –
25 | CNC(=O)c1ccccc1SCc1c(Cl)cc(-n2ncc(=O)[nH]c2=O)cc1Cl [Compound 20] | ††† (†††: 20 ≥ THRα/β > 10;) | –
26 | CC(C)NC(=O)c1ccccc1SCc1c(Cl)cc(-n2ncc(=O)[nH]c2=O)cc1Cl [Compound 22] | ††† (†††: 20 ≥ THRα/β > 10;) | –
27 | CCNC(=O)c1ccccc1SCc1c(Cl)cc(-n2ncc(=O)[nH]c2=O)cc1Cl [Compound 24] | †† (††: 10 ≥ THRα/β;) | –
28 | CNC(=O)c1ccccc1SCc1c(Cl)cc(-n2nc(N)c(=O)[nH]c2=O)cc1Cl [Compound 29] | ††† (†††: 20 ≥ THRα/β > 10;) | † (†: 5 ≥ THRα/β;)
29 | CNC(=O)c1ccccc1OCc1c(Cl)cc(-n2nc(C(F)F)c(=O)[nH]c2=O)cc1Cl [Compound 53] | †† (††: 10 ≥ THRα/β;) | † (†: 5 ≥ THRα/β;)
30 | CNC(=O)c1ccccc1SCc1c(Cl)cc(-n2nc(C(F)F)c(=O)[nH]c2=O)cc1Cl [Compound 55] | †† (††: 10 ≥ THRα/β;) | –
